Experimental data reported in patent US20260344668A1, “PHENYLPYRAZOLE COMPOUND, AND PLANT DISEASE CONTROL METHOD” (priority 2022, published 2026).

What was measured:
[1] = test system: soybean rust fungus (Phakopsora pachyrhizi) having an amino acid substitution of F129L in a mitochondrial cytochrome b protein; test: Test Example 7 Control Test Against Soybean Rust (leaf disk); format: in vivo; conditions: 200 ppm, 10 μL per soybean leaf disk (cultivar: Kurosengoku), inoculated after 1 day
Description: (§1) The term of “non-treated well” in Test Example 4, Test Example 5, and Test Example 6 represents a well wherein a test was carried out under the same conditions as those described in each Test Example except for dispensing DMSO instead of a diluted solution with DMSO comprising the Present compound. Also, the term of “non-treated” in Test Examples 15 to 17 represents a test which was carried out under the same conditions as those described in each Test Example except for dispensing DMSO instead of a diluted solution with DMSO comprising the Present compound. Also, the term of “non-treated leaf disk” in Test Example 7 represents a leaf disk wherein a test was carried out under the same conditions as those described in the Test Example except for dispensing DMSO instead of a diluted solution with DMSO comprising the Present compound. Also, the term of “non-treated” in Test Example 10 and Test Example 11 means that a diluted solution with water of a formulation comprising the Present compound was not sprayed.
A true leaf of a soybean (cultivar: Kurosengoku) was cut into a diameter of 1 cm to prepare each leaf disk. To each well of a 24 well microplate was dispensed 1 mL of an agar medium (agar concentration 1.2%), and then one of said leaf disk was placed on the agar medium in each well. To a mixture of Sorpol (registered trademark) 1200KX (0.5 μL), DMSO (4.5 μL), and xylene (5 μL) was added a DMSO solution (20 μL) comprising a test compound (10000 ppm), and the resulting mixture was mixed. The resulting mixture was diluted with ion exchange water to prepare a mixture comprising a prescribed concentration of the test compound.
The resulting mixture was sprayed into each leaf disk at a ratio of 10 μL per leaf disk. After 1 day, an aqueous suspension of spores of soybean rust fungus (Phakopsora pachyrhizi) having an amino acid substitution of F129L in a mitochondrial cytochrome b protein (1.0×10^5/mL) was inoculated by spraying on each leaf disk. After the inoculation, the microplate was placed into an artificial climate chamber (Lighting: 6 hours, Lights-out: 18 hours, Temperature: 23° C., Humidity: 60%). After 1 day, the leaf disks were air-dried until water droplets on the surfaces of the leaf disks disappeared, and the microplate was placed into the artificial climate chamber again for 12 days. Then, lesion area of soybean rust was investigated. As a result, when the prescribed concentration was 200 ppm, each lesion area of leaf disk treated with any one of the Present compound 9, 10, 11, 13, 14, 15, 16, 17, 18, 20, 32, 33, 34, 35, 36, 37, 38, 39, 40, 42, 43, 44, 47, 48, 49, 50, 51, 52, 53, 55, 56, 57, 58, 62, 63, 64, 65, 66, 67, 68, 69, 70, 71, 73, 74, 75, 76, 77, 78, 79, 80, 81, 82, 83, 84, 85, 86, 87, 88, 89, 90, 91, 92, 93, 94, 95, 96, 97, 98, 99, 100, 101, or 102 as the test compound was 30% or less relative to the lesion area of non-treated leaf disk.

Cochliobolus miyabeanus = test: Test Example 6 Control Test Against Rice Brown Spot Fungus (96 well titer plate growth); format: cell-based; conditions: 1 μL of 150 ppm DMSO solution + 150 μL YB liquid medium, 23° C., 3 days, absorbance at 550 nm
Description: as §1
Each of the Present compound 17, 33, 36, 37, 39, 40, 41, 42, 43, 44, 48, 49, 50, 51, 52, 53, 62, 68, 69, 70, 71, 76, 77, 79, 80, 81, 82, 83, 84, or 97 was diluted with DMSO to obtain a diluted solution containing 150 ppm of each compound, and 1 μL of the diluted solution was dispensed into a titer plate (96 well), and thereto was then dispensed 150 μL of a YB liquid medium to which spores of Cochliobolus miyabeanus were inoculated in advance. This plate was cultured at 23° C. for 3 days, thereby allowing Cochliobolus miyabeanus to undergo proliferation, and the absorbance at 550 nm of each well of the titer plate was then measured to determine a degree of growth of Cochliobolus miyabeanus. As a result, the degree of growth in the well treated with each of the above Present compounds was 50% or less relative to the degree of growth in the non-treated well.

Phakopsora pachyrhizi [2] = test: Test Example 15 Control Test Against Soybean Rust Fungus (spore germination, 96 well titer plate); format: cell-based; conditions: treatment concentration 1 ppm, 23° C., several hours
Description: as §1
The Present compound was diluted with DMSO to obtain a diluted solution containing 150 ppm of the compound, and 1 μL of the diluted solution was dispensed into a titer plate (96 well), and thereto was then dispensed 149 μL of an aqueous suspension (1.0×10^4/mL) of spores of Phakopsora pachyrhizi to which spores of Phakopsora pachyrhizi were suspended in advance. This plate was cultured at 23° C. for several hours, and then germinated spores of Phakopsora pachyrhizi were counted. As a result, when the treatment concentration was 1 ppm, the number of germinated spores in each well comprising any one of the Present compound 1, 11, 17, 18, 20, 23, 30, 33, 34, 35, 36, 37, 38, 39, 40, 41, 42, 43, 44, 46, 47, 48, 49, 50, 51, 52, 53, 54, 55, 56, 57, 58, 62, 63, 64, 65, 66, 67, 68, 69, 70, 71, 72, 73, 74, 75, 76, 77, 78, 79, 80, 81, 82, 83, 84, 85, 86, 87, 88, 89, 90, 91, 92, 93, 94, 95, 96, 97, 98, 99, 100, 101, or 102 as the test compound was 50% or less relative to the number of germinated spores in the non-treated well.

Phakopsora pachyrhizi [3] = test: Test Example 11 Control Test Against Soybean Rust (pot test, spraying before inoculation); format: in vivo; conditions: 200 ppm foliage spray, soybeans (Kurosengoku), inoculated after 2 to 5 days
Description: as §1
A plastic pot was filled with soil, soybeans (cultivar: Kurosengoku) were seeded thereto, and cultured in a greenhouse for 10 to 14 days. The Present compound 9, 10, 11, 13, 14, 15, 17, 18, 20, 21, 22, 23, 26, 27, 33, 34, 35, 36, 37, 38, 39, 40, 41, 42, 43, 44, 46, 47, 53, 54, 55, 56, 57, 58, 66, 67, 68, 69, 70, 71, 73, 74, 75, 76, 77, 78, 79, 80, 81, 82, 83, 84, 85, 86, 87, 88, 89, 90, 91, 92, 93, 94, 95, 96, 97, 98, 99, 100, 101, or 102 formulated according to the method described in the Formulation Example 1 was mixed with water in such a way that the concentration thereof was 200 ppm, and the resulting mixture was sprayed to foliage of the above soybeans so as to adequately adhere onto the surfaces of leaves of the above soybeans. After spraying the mixture, the soybeans were air-dried. After 2 to 5 days, an aqueous suspension of spores of Phakopsora pachyrhizi was inoculated by spraying to the soybeans. After the inoculation, the soybeans were placed in a greenhouse at 23° C. in daytime and at 20° C. in nighttime under a humid condition for 1 to 2 day(s), then cultured in a greenhouse for 12 days, and then a lesion area was investigated. As a result, the lesion area in the soybeans treated with each of the above Present compound was 30% or less relative to the lesion area in the non-treated soybeans.

Compound | lesion area relative to the lesion area of non-treated leaf disk [1] | degree of growth relative to the degree of growth in the non-treated well (Cochliobolus miyabeanus) | number of germinated spores relative to the non-treated well (Phakopsora pachyrhizi [2]) | lesion area relative to the lesion area in the non-treated soybeans (Phakopsora pachyrhizi [3])
O=S(=O)(c1ccco1)n1ccc(-c2ccc(Br)cc2)n1 [compound 49] | ≤ 30% | ≤ 50% | ≤ 50% | 
O=S(=O)(c1cccs1)n1ccc(-c2ccc3c(c2)CCC3)n1 [compound 62] | ≤ 30% | ≤ 50% | ≤ 50% | 
O=S(=O)(c1ccco1)n1ccc(-c2ccc(Br)c(F)c2)n1 [compound 50] | ≤ 30% | ≤ 50% | ≤ 50% | 
Cn1nccc1S(=O)(=O)n1ccc(-c2cc(F)c(Br)c(F)c2)n1 [compound 48] | ≤ 30% | ≤ 50% | ≤ 50% | 
O=S(=O)(c1cccs1)n1ccc(-c2ccc(F)cc2)n1 [compound 90] | ≤ 30% |  | ≤ 50% | ≤ 30%
O=S(=O)(c1ccccc1Cl)n1ccc(-c2cc(F)c(Br)c(F)c2)n1 [compound 11] | ≤ 30% |  | ≤ 50% | ≤ 30%
O=S(=O)(c1ccoc1)n1ccc(-c2ccccc2)n1 [compound 86] | ≤ 30% |  | ≤ 50% | ≤ 30%
O=S(=O)(c1ccoc1)n1ccc(-c2cc(F)cc(F)c2)n1 [compound 74] | ≤ 30% |  | ≤ 50% | ≤ 30%
O=S(=O)(c1cccnc1)n1ccc(-c2cc(F)cc(F)c2)n1 [compound 98] | ≤ 30% |  | ≤ 50% | ≤ 30%
Cn1cc(S(=O)(=O)n2ccc(-c3cc(F)c(Br)c(F)c3)n2)cn1 [compound 35] | ≤ 30% |  | ≤ 50% | ≤ 30%
COc1ccc(-c2ccn(S(=O)(=O)c3cccnc3)n2)cc1 [compound 58] | ≤ 30% |  | ≤ 50% | ≤ 30%
O=S(=O)(c1cccnc1)n1ccc(-c2ccc(F)cc2)n1 [compound 57] | ≤ 30% |  | ≤ 50% | ≤ 30%
O=S(=O)(c1ccco1)n1ccc(-c2cc(F)cc(F)c2)n1 [compound 73] | ≤ 30% |  | ≤ 50% | ≤ 30%
Cn1ccc(S(=O)(=O)n2ccc(-c3cc(F)c(Br)c(F)c3)n2)n1 [compound 34] | ≤ 30% |  | ≤ 50% | ≤ 30%
Cc1cccc(S(=O)(=O)n2ccc(-c3cc(F)c(Br)c(F)c3)n2)c1 [compound 20] | ≤ 30% |  | ≤ 50% | ≤ 30%
O=S(=O)(c1cccc(Cl)c1)n1ccc(-c2cc(F)c(Br)c(F)c2)n1 [compound 18] | ≤ 30% |  | ≤ 50% | ≤ 30%
